Earlier results on 8 compounds are cited in patent US20130344141A1, “CONCENTRATION AND MENTAL PERFORMANCE AMPLIFYING FORMULATION” (priority 2009, published 2013).

Read-outs that look alike come from different tables or passages of the source.

The conditions of data set [1]: taken orally.
The conditions of data set [2]: majority metabolized peripherally.
For data set [3] the following is noted: in vivo, po.
The next data set has as its system neurons. Particulars: by blocking glutamate-induced neuronal calcium influx and cell death.
The test system of data set [4] is cerebral cortex N-methyl-D-aspartate (NMDA) receptor.
The conditions of data set [5]: in vivo.
For data set [6], the system named is fungal microorganisms that cause onychomycosis. The following applies: Trichophyton rubrum, T. mentagrophytes, Microsporum canis, Epidermophyton floccosum, E. stockdale.
A further data set concerns neuroblastoma cells. The following applies: in vitro.
The conditions of data set [7]: in vivo. This is another data set of the same source.

With “1,2-diacyl-:ussn:ueglycero-3-phosphocholine [phosphatidylcholine]”, the “time to maximum serum concentrations” value in data set [1] was 8 to 12 h.
For `N[C@@H](Cc1ccc(O)c(O)c1)C(=O)O` [L-dopa, levodopa], the “share that reaches the brain” value in data set [2] was “less than 1%”.
On to `Cn1c(=O)c2c(ncn2C)n(C)c1=O` [caffeine, 1,3,7-trimethylxanthine], for which the bioavailability – broadly, the share of a dose that reaches the circulation, judged against a reference dose that is usually intravenous – in [3] is 100%.
Consider `C/C=C1\[C@H]2C=C(C)C[C@]1(N)c1ccc(=O)[nH]c1C2` [huperzine A, Huperzine A], for which the “protection of neurons against toxic levels of glutamate” value in the data set with neurons is given as “protects neurons”. Moreover, in the data set on acetylcholine (maximal value, frontal cortex), the “acetylcholine elevation, frontal cortex” value was 125%. Moreover, the “acetylcholine elevation, parietal cortex” value in the data set on acetylcholine (maximal value, parietal cortex) is 105%. In the data set on acetylcholine (other brain regions), the “acetylcholine elevation, other brain regions” value is listed as 22-65%. Also, in data set [4], the “affinity as NMDA receptor antagonist” value is listed as “low affinity”. Besides, the blood-brain barrier passage result in [5] is recorded as “crosses the blood-brain barrier”.
In the case of `CC1CCC(C(C)C)C(O)C1` (stereo not shown) [menthol], the “activity against fungal microorganisms that cause onychomycosis” value in data set [6] was “active”.
Take `CN1CCCC1c1cccnc1` (stereo not shown) [nicotine, Nicotine]: for the setting “in the body”, the elimination half-life result is recorded as “around two”. Moreover, under “in vivo”, the blood-brain barrier passage result was “crosses the blood-brain barrier”.
Regarding `OC[C@H]1O[C@@H](OCCc2ccc(O)cc2)[C@H](O)[C@@H](O)[C@@H]1O` [salidroside], in the data set with neuroblastoma cells, the “apoptosis of neuroblastoma cells exposed to hydrogen peroxide” value was “decreases apoptosis”.
As to `CCOC(=O)C1=C[C@]2(CC)CCCN3CCc4c(n1c1ccccc41)[C@@H]32` [vinpocetine, Eburnamenine-14-carboxylic acid; Ethyl Ester], in the data set with platelet aggregation, the drug-induced platelet aggregation entry is “inhibits”. Also, in data set [7], the bioavailability is 7-57% and the “effect of food on absorption” value is “food significantly enhances absorption”.
